Source: patent publication US20260174739A1 (priority 2022, published 2026)
Where a name gives a salt, the structure may show the parent alone.

biological target: human SERT (Homo sapiens, UniProt P31645); assay: Inhibitory activity assay against 5-HT transporter (neurotransmitter transporter uptake assay kit); format: cell-based; details: HEK-293 cells overexpressing human SERT; read-out: 5-HTT (IC50)
Description: In HEK-293 cells overexpressing human SERT, the transporter inhibitory effect of the test compound on human SERT was assayed using a Neurotransmitter transporter uptake assay kit (Molecular devices).

Sequence of human SERT (P31645 whole entry): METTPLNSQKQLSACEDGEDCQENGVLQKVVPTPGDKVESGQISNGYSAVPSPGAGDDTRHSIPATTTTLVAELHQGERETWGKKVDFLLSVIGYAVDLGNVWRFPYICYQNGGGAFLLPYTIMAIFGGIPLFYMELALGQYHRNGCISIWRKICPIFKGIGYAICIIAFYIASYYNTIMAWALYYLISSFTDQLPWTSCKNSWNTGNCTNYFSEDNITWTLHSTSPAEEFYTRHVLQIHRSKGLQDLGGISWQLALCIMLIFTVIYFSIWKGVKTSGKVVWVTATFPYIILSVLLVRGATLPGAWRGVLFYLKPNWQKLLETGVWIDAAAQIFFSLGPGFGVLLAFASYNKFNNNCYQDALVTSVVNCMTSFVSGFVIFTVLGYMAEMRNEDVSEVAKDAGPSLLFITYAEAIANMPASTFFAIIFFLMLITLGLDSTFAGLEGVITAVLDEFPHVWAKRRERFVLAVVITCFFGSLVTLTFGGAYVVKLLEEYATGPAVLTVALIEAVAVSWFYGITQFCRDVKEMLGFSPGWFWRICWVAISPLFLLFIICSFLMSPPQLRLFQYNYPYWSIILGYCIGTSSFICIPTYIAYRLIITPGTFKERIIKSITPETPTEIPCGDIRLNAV

Row | SMILES | IC50 [nM]
1 | NC1(c2ccccc2)CCc2oncc2C1 (racemic) [rac-A145, phenyl-4,5,6,7-tetrahydrobenzo[d]isoxazol-5-amine] | 600
2 | CCOc1nc2c(s1)CC(N)(c1ccccc1)CC2 (racemic) [rac-A257, 2-ethoxy-6-phenyl-4,5,6,7-tetrahydrobenzo[d]thiazol-6-amine] | 300
3 | N[C@]1(c2ccccc2)CCc2ncsc2C1 [R-A14] | 67
4 | COc1cccc(C2(N)CCc3nc(OC)sc3C2)c1 (racemic) [rac-A317, 2-methoxy-6-(3-methoxyphenyl)-4,5,6,7-tetrahydrobenzo[d]thiazol-6-amine] | 5100
5 | CN(C)C1(c2ccccc2)CCc2sc(N)nc2C1 (racemic) [rac-A249, N^5, N^5-dimethyl-5-phenyl-4,5,6,7-tetrahydrobenzo[d]thiazole-2,5-diamine] | 1000
6 | CSc1cccc(C2(N)CCc3nc(N)sc3C2)c1 (racemic) [rac-A304, 6-(3-methylthio)phenyl-4,5,6,7-tetrahydrobenzo[d]thiazole-2,6-diamine] | 3700
7 | CNC1(c2ccc(OC)c(OC)c2)CCc2nc(N)sc2C1 (racemic) [rac-A254, 6-(3,4-dimethoxyphenyl)-N^6-methyl-4,5,6,7-tetrahydrobenzo[d]thiazole-2,6-diamine] | 2000
8 | COc1nc2c(s1)CC(N)(c1ccccc1)CC2 (racemic) [rac-A225, 2-methoxy-6-phenyl-4,5,6,7-tetrahydrobenzo[d]thiazol-6-amine] | 1000
9 | CCNc1nc2c(s1)CC(N)(c1cccc(OC)c1)CC2 (racemic) [rac-A301, N^2-ethyl-6-(3-methoxyphenyl)-4,5,6,7-tetrahydrobenzo[d]thiazole-2,6-diamine hydrochloride] | 4000
10 | COc1cccc(C2(N)CCc3nc(O)sc3C2)c1 (racemic) [rac-A262, 6-amino-6-(3-methoxyphenyl)-4,5,6,7-tetrahydrobenzo[d]thiazol-2-ol] | 140
11 | NC1(c2ccc(F)cc2)CCCc2cn[nH]c21 (racemic) [rac-A222, 7-(4-fluorophenyl)-4,5,6,7-tetrahydro-1H-indazol-7-amine] | 10000
12 | Nc1nc2c(s1)CC(N)(c1ccc(F)cc1F)CC2 (racemic) [rac-A235, 6-(2,4-difluorophenyl)-4,5,6,7-tetrahydrobenzo[d]thiazole-2,6-diamine] | 5900
13 | COc1ccc(C2(N)CCc3nc(N)sc3C2)cc1 (racemic) [rac-A89, 6-(4-methoxyphenyl)-4,5,6,7-tetrahydrobenzothiazole-2,6-diamine] | 7600
14 | CNC1(c2cccc(OC)c2)CCc2nc(N)sc2C1 (racemic) [rac-A88, 6-(3-methoxyphenyl)-N^6-methyl-4,5,6,7-tetrahydrobenzothiazole-2,6-diamine] | 900
15 | CNC1(c2ccc(F)cc2)CCc2ncsc2C1 (racemic) [rac-A294, 6-(4-fluorophenyl)-N-methyl-4,5,6,7-tetrahydrobenzo[d]thiazol-6-amine] | 1100
16 | COc1cccc(C2(N)CCc3nc(NC(C)=O)sc3C2)c1 (racemic) [rac-A300, N-(6-amino-6-(3-methoxyphenyl)-4,5,6,7-tetrahydrobenzo[d]thiazol-2-yl)acetamide] | 2100
17 | NC1(c2ccccc2)CCc2nc(O)sc2C1 (racemic) [rac-A8, 6-amino-6-phenyl-4,5,6,7-tetrahydrobenzothiazol-2-ol] | 7
18 | CCOc1cccc([C@@]2(N)CCc3nc(N)sc3C2)c1 [R-A228, (R)-6-(3-ethoxyphenyl)-4,5,6,7-tetrahydrobenzo[d]thiazole-2,6-diamine] | 2900
19 | CN(Cc1ccccc1)C1(c2ccccc2)CCc2[nH]ncc2C1 (racemic) [rac-A68, N-benzyl-N-methyl-5-phenyl-4,5,6,7-tetrahydro-1H-indazol-5-amine] | 700
20 | COc1cccc(C2(N)CCc3nc(C4CC4)sc3C2)c1 (racemic) [rac-A316, 2-cyclopropyl-6-(3-methoxyphenyl)-4,5,6,7-tetrahydrobenzo[d]thiazol-6-amine hydrochloride] | 4000
21 | COc1cccc(C2(N)CCc3nc(C(C)=O)sc3C2)c1 (racemic) [rac-A314, 1-(6-amino-6-(3-methoxyphenyl)-4,5,6,7-tetrahydrobenzo[d]thiazol-2-yl)ethan-1-one hydrochloride] | 5600

Row | SMILES | IC50 [nM]
22 | COc1cccc(C2(N)CCc3c(sc(=O)n3C)C2)c1 (racemic) [rac-A299, 6-amino-6-(3-methoxyphenyl)-3-methyl-4,5,6,7-tetrahydrobenzo[d]thiazol-2-one hydrochloride] | 520
23 | CNC1(c2cccc(OC)c2)CCc2ncsc2C1 (racemic) [rac-A273, 6-(3-methoxyphenyl)-N-methyl-4,5,6,7-tetrahydrobenzo[d]thiazol-6-amine hydrochloride] | 1000
24 | NC1(c2cccc(O)c2)CCc2nc(O)sc2C1 (racemic) [rac-A306, 6-amino-6-(3-hydroxyphenyl)-4,5,6,7-tetrahydrobenzo[d]thiazol-2-ol] | 200
25 | COc1cccc(C2(N)CCc3nc(N)sc3C2)n1 (racemic) [rac-A310, 6-(6-methoxypyridin-2-yl)-4,5,6,7-tetrahydrobenzo[d]thiazole-2,6-diamine] | 16000
26 | CNC1(c2ccccc2)CCc2nc(O)sc2C1 (racemic) [rac-A279, 6-(methylamino)-6-phenyl-4,5,6,7-tetrahydrobenzo[d]thiazol-2-ol] | 28
27 | CNC1(c2cccc(C(F)(F)F)c2)CCc2nc(N)sc2C1 (racemic) [rac-A94, 6-(3-trifluoromethylphenyl)-N^6-methyl-4,5,6,7-tetrahydrobenzothiazole-2,6-diamine hydrobromide] | 4300
28 | NC1(c2ccccc2)CCc2scnc2C1 (racemic) [rac-A134, 5-phenyl-4,5,6,7-tetrahydrobenzo[d]thiazol-5-amine] | 17000
29 | NC1(c2ccccc2)CCc2nc(C(F)(F)F)sc2C1 (racemic) [rac-A131, 6-phenyl-2-(trifluoromethyl)-4,5,6,7-tetrahydrobenzo[d]thiazol-6-amine hydrochloride] | 3600
30 | N#Cc1cccc(C2(N)CCc3nc(N)sc3C2)c1 (racemic) | 8900
31 | CCOc1cccc(C2(N)CCc3nc(O)sc3C2)c1 (racemic) [rac-A295, 6-amino-6-(3-ethoxyphenyl)-4,5,6,7-tetrahydrobenzo[d]thiazol-2-ol hydrochloride] | 110
32 | COc1cccc(C2(N)CCc3nc(C(N)=O)sc3C2)c1 (racemic) [rac-A315, 6-amino-6-(3-methoxyphenyl)-4,5,6,7-tetrahydrobenzo[d]thiazole-2-formamide] | 6800
33 | Cc1ccccc1C1(N)CCc2nc(N)sc2C1 (racemic) [rac-A100, 6-(2-methylphenyl)-4,5,6,7-tetrahydrobenzothiazole-2,6-diamine] | 17000
34 | Nc1nc2c(s1)CC(N)(c1ccc3ccccc3c1)CC2 (racemic) [rac-A118, 6-(naphthalen-2-yl)-4,5,6,7-tetrahydrobenzothiazole-2,6-diamine] | 2000
35 | Nc1nc2c(s1)CC(N)(c1cccnc1)CC2 (racemic) [rac-A98, 6-(pyridin-3-yl)-4,5,6,7-tetrahydrobenzothiazole-2,6-diamine] | 16000
36 | COc1cccc(C2(N)CCc3nc(Br)sc3C2)c1 (racemic) [rac-A318, 2-bromo-6-(3-methoxyphenyl)-4,5,6,7-tetrahydrobenzo[d]thiazol-6-amine hydrochloride] | 4600
37 | CNC1(c2ccc(F)cc2F)CCc2nc(N)sc2C1 (racemic) [rac-A236, 6-(2,4-difluorophenyl)-N^6-methyl-4,5,6,7-tetrahydrobenzo[d]thiazole-2,6-diamine] | 2800
38 | CNC1(c2ccccc2F)CCc2nc(N)sc2C1 (racemic) [rac-A81, 6-(2-fluorophenyl)-N^6-methyl-4,5,6,7-tetrahydrobenzothiazole-2,6-diamine] | 94
39 | NC1(c2ccccc2)CCc2nnsc2C1 (racemic) [rac-A244, 6-phenyl-4,5,6,7-tetrahydrobenzo[d][1,2,3]thiadiazol-6-amine hydrochloride] | 1500
40 | Nc1nc2c(s1)C[C@@](N)(c1ccccc1)CC2 [R-A1] | 1000
41 | CN(C)C1(c2ccccc2)CCc2ncsc2C1 (racemic) [rac-A233, N,N-dimethyl-6-phenyl-4,5,6,7-tetrahydrobenzo[d]thiazol-6-amine] | 300
42 | COc1cccc(C2(N)CCc3nc(-c4ccccc4)sc3C2)c1 (racemic) [rac-A319, 6-(3-methoxyphenyl)-2-phenyl-4,5,6,7-tetrahydrobenzo[d]thiazol-6-amine hydrochloride] | 980
